From US9446145B2, “Curcumin-antibody conjugates as anti-cancer agents” (priority 2009, dated 2016)

How the values were obtained:
B16F10 melanoma cells = assay: B16F10 melanoma cell death IC50 (live cell counts 24 h after treatment); type: cell-based; settings: Mus musculus, B16-F10, 24 h, free/solubilized curcumin, read-out: IC50 (concentration required for 50% B16F10 melanoma cell death)
Protocol: (§1) B16F10 melanoma cells were plated in a 96-well tissue culture plate with 2,000 cells in 50 μl of medium (DMEM+10% fetal bovine serum+1% penicillin-streptomycin) per well. After 24 hours, the targeted curcumin derivative (linked to 633 dye) was administered in a range of concentrations-10 nM, 20 nM, 30 nM, 50 nM, 100 nM. The product was diluted in neurobasal medium (+1% penicillin-streptomycin, 1% 1-glutamine, 2% B27 supplement), with 50 μl per well, and 2 wells per concentration. Control wells were treated with corresponding concentrations of free MUC18 antibody coupled to 633 dye. The plate was imaged after 24 hours using visible light and fluorescent microscopes. Using cell counts from four frames per well, the mean live cell number and mean standard deviation for each concentration (and its corresponding control) were found. The data was compiled and graphed on Kaleida Graph. […] See below. Each corresponding control well received the same amount of curcumin-free Mel-CAM-Dylight800.
Determined using same methods as step 1a. Dilution of 100 nM, 200 nM, 300 nM, 400 nM, 500 nM, 1 μM, 10 μM, 20 μM, 30 μM, 40 μM, and 50 μM were made using a 40 mM stock solution of curcumin in DMSO. Curcumin IC50 was compared to curc-MUC18 IC50 using Kaleida Graph.

GL261 glioblastoma cells = assay: GL261 glioblastoma cell killing IC50 (same approach as for B16F10); type: cell-based; settings: Mus musculus, solubilized non-targeted curcumin
Protocol: as §1
The same approach used for the B16F10 melanoma cells (see above) was next used for the glioblastoma GL261 cells by attaching curcumin to an antibody against the […] antigen, which is expressed on the surface of grade III/IV glioblastoma (Strik, H. M., et al., Galectin-3: Cellular Distribution and Correlation with WHO-grade in Human Gliomas. Journal of Neuro-Oncology, 53(1): p. 13-20 (2001)). […]

Structure (SMILES): COc1cc(C=CC(=O)CC(=O)C=Cc2ccc(O)c(OC)c2)ccc1O [curcumin, 1,7-bis(4-hydroxy-3-methoxyphenyl)-1,6-heptadiene-3,5-dione]
- IC50 (B16F10 melanoma cells): 15 µM
- IC50 (GL261 glioblastoma cells): 10 µM
